Series [1] concerns the target T1, HLA-B*57:01 (Homo sapiens, UniProt P01889, D201E/D98Y/E176V/E187L/E204Q/E69M/E70A/G107R/I90N/K202T/L105A/L119I/N104I/N87E/Q89R/Q94S/R106L/R155S/R180L/R86G/S101N/S121V/S35A/S48A/T118I/V36M/Y140S/Y91M). Briefly: LC-MRM-MS quantitation of HLA ligands and co-purified abacavir from abacavir treated C1R.B*57:01 cells. The following applies: C1R.B*57:01, 35 µM abacavir. It is filed as cell-based.

For the next series, the system named is C1R.B*57:01 cells. In words: Cellular proteome comparison by label free quantitation LC-MS/MS. The conditions noted are these: 35 µM abacavir, 48 h, 2,306 proteins, 5% FDR. It is filed as cell-based, human.
Series [2] relates to abacavir responsive CD8+ T cells. Briefly: Intracellular cytokine staining of abacavir responsive CD8+ T cells stimulated with abacavir treated C1R.B*57:01. It is filed as cell-based, human. The following applies: 35 µM abacavir 0-30 h, three T cell lines. As for the experimental part: Stimulator PBMCs were subsequently added to responder PBMC at a 2:1 responder:stimulator ratio and the final volume of culture made up to 2 ml with RF10. Cells were incubated at 37°C, 5% CO2 and fed with fresh media as required to sustain cell outgrowth. On day 5 of culture, cell media were supplemented with rhIL-2 (Cetus) at 20 U/ml and maintained at this concentration thereafter. […] C1R.B*57:01 were mixed with 1 × 10^5 T cells at a 1:2 ratio in a volume of 200 μl fresh RH10. […] Sigma-Aldrich) was added to a final concentration of 10 μg/ml and incubated a further 4 h. Cells were stained with anti-CD4-PE [clone RPA-T4, Becton Dickinson (BD) Biosciences, USA] and anti-CD8-PerCP-Cy™5.5 (clone SK1, BD Biosciences, 25 min, 4°C), fixed with 1% PFA/PBS (20 min, room temperature), washed in PBS, then permeabilised with 0.3% saponin (Sigma-Aldrich) in PBS containing anti-Interferon-γ (IFNγ)-PE-Cy™7 (clone B27, BD Biosciences) and anti-tumour necrosis factor (TNF)-PE-V450 (clone Mab11, BD Biosciences), and acquired by flow cytometry using an LSR II flow cytometer and BD […]™ software (BD). The percentage of CD8^+ T cells producing IFNγ and TNF was determined via analysis using FlowJo software (BD).

Series [3] addresses T1, HLA-B*57:01. The following applies: 60 µM abacavir.
Series [4] deals with T1, HLA-B*57:01. The conditions noted are these: 721.220.B*57:01 cells, 60 µM abacavir, 37 and 50°C vs 4°C.
Series [5] addresses T1, HLA-B*57:01. The following applies: 721.220.B*57:01 +/- tapasin, 60 µM abacavir 20 hrs, Brefeldin A 0-6 hrs.
For series [6], the target named is T1, HLA-B*57:01. The following applies: ref [20]–[22]; cited from earlier work.
The target of a further series is HLA-B*58:01 (Homo sapiens, UniProt P01889, A329T/C349S/D201E/D98Y/E176V/E187L/E204Q/E69T/G107R/I218V/I90N/K202T/L105A/L119I/N104I/N87E/Q89R/Q94S/R106L/R155S/R180L/R86G/S101N/S121R/S35A/S48A/T118I/V127L/V306I/V36M/Y140S/Y91M). The following applies: ref [20]–[22]; cited from earlier work.

A value given as a limit tells only on which side of the number the result lay.

Consider two compounds from article PMC8170132, “Kinetics of Abacavir-Induced Remodelling of the Major Histocompatibility Complex Class I Peptide Repertoire” (Frontiers in Immunology, 2021).

Take `Nc1nc(NC2CC2)c2ncn([C@H]3C=C[C@@H](CO)C3)c2n1` [abacavir]: the “Time of abacavir treatment after which changes in the immunopeptidome were evident” value at HLA-B*57:01 [1] stood at 2 h. Besides, the “Co-purification of HLA-B*57:01-bound abacavir over the time course” value on HLA-B*57:01 [1] (0-16 h) is given as “increasing amounts”. Also, in the series on C1R.B*57:01 cells, the “Change in protein expression of the cellular proteome” value is listed as “no protein showed significant changes in expression”. For the same compound, the “Immunogenicity of abacavir treated antigen presenting cells (IFNγ and/or TNF production by CD8+ T cells)” value in series [2] is on record as “increase in antigen presenting cell immunogenicity was observed over the first 12 h”. At HLA-B*57:01 [3] (721.220.B*57:01.tapasin cells), the “Effect on HLA-B*57:01 maturation (Endo-H resistance), tapasin-reconstituted” value was “unaffected”. In addition, the “Effect on HLA-B*57:01 maturation (Endo-H resistance), tapasin absent” value at HLA-B*57:01 [3] (721.220.B*57:01 cells) is “did not significantly alter this pattern of biogenesis”. At HLA-B*57:01 [4], the “Effect on thermal stability profile of HLA-B*57:01, tapasin absent” value is “no significant impact on the thermal stability profile”. Also, at HLA-B*57:01 [5], the “Effect on expression level and stability of cell surface HLA-B*57:01” value is reported as “did not significantly alter either the expression level or the stability”. For the same compound, the “Odds ratio of hypersensitivity reaction with HLA-B*57:01” value on HLA-B*57:01 [6] is on record as greater than 500.

Regarding `Oc1ncnc2[nH]ncc12` [allopurinol], on HLA-B*58:01, the “Odds ratio of hypersensitivity reaction with HLA-B*58:01” value is given as greater than 500.
